According to US20060089371A1, “Phenyl or heteroaryl amino alkane derivatives as ip receptor antagonist” (Bayer HealthCare AG, priority 2002, published 2006):

How the values were obtained:
IP receptor = biological target: T1, IP receptor (Homo sapiens, UniProt P43119); test: IP receptor binding/cAMP in HEL cells ([3H]-iloprost binding, Assay 1; iloprost-induced cAMP production, Assay 2); settings: compounds of about 40 to 90% purity, read-out: In vitro activity grade (IC50 class)
T1 construct: one million cells in 160 μl aliquot of cell suspension were put in a well of 96 well plate; host or cells: HEL 92.1.7 human erythroleukemia cells (whole cells)
Protocol: [Measurement of the [^3H]-iloprost Binding to HEL Cells] (Assay 1)
A human erythloleukemia cell line, HEL 92.1.7, was purchased from American Type Culture Correction and maintained in RPMI-1640 medium (Gibco BRL) supplemented with 10% fetal calf serum (FCS), 2 mM glutamine, 4.5 g/L glucose, 10 mM Hepes, 1 mM sodium pyruvate, 100 U/ml penicillin, and 100 μg/ml streptomycin in a humidified 5% CO2 atmosphere at 37° C. Cells were collected with centrifugation and washed with binding assay buffer (BAB: 50 mM Tris-HCl, 5 mM MgCl2 (pH 7.5)). Cells were suspended at the density of 6.25×10^6 cells/ml in BAB, and one million cells in 160 μl aliquot of cell suspension were put in a well of 96 well plate (Falcon). Then, 20 μl of compound solution, 100 μM of iloprost (for non-specific binding), or buffer alone (total binding), diluted with 1% DMSO in BAB was added. Finally, another 20 μl containing [^3H]-iloprost (0.02 μCi, 0.5-1 pmol) in BAB was added and incubated at room temperature for 30 min with a gentle shaking. Cell suspension was then transferred to a well of MultiScreen plate with GF/C glass filters (Millipore) to harvest cells. Cells were washed twice with 200 μl of ice-cold BAB and the plate was kept at 55° C. for 30 min to dry filters. The filter in the well was punched out to a counting tube and 2 ml of Ultima Gold XR (Packard) was added. [^3H]-radio activity in the filter was measured by a liquid scintillation counter (Beckman, USA).
[Iloprost-Induced cAMP Production Assay in HEL Cells] (Assay 2)
HEL cells were collected with centrifugation and washed with cAMP assay buffer (CAB: Hank's balanced salt solution, 17 mM Hepes, 0.1% bovine serum albumin, 1 mM IBMX, 0.4% DMSO, and 1 mM L-ascorbic acid sodium salt (pH 7.4)). Cells were suspended at the density of 2.5×10^5 cells/ml in CAB, and twenty thousand cells in 80 μl aliquot of cell suspension were put in a well of 96 well plate (Falcon). Then, 10 μl of compound solution diluted with 1% DMSO in CAB or buffer alone was added. The plate was incubated at 37° C. for 30 min. Then, another 10 μl containing 100 nM iloprost in CAB or buffer alone was added and further incubated at 37° C. for 30 min. cAMP content in the well was measured by a cAMP ELISA kit (Applied Biosystems, USA).
The data corresponds to the compounds as yielded by solid phase synthesis and thus to levels of purity of about 40 to 90%. For practical reasons, the compounds are grouped in three classes of activity as follows: IC50=A<0.1 μM≦B<1 μM≦C

T1 sequence (P43119 whole entry): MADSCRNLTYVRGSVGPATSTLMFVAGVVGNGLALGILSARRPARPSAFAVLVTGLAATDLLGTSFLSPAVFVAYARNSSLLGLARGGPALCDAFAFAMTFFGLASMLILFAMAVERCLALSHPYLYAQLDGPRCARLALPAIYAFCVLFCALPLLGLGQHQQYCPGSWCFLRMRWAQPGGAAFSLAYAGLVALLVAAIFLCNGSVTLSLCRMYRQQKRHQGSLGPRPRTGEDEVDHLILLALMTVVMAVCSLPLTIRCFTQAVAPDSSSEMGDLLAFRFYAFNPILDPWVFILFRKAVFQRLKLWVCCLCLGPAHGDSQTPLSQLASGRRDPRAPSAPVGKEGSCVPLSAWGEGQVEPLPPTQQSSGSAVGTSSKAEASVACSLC

Row | SMILES | melting point | IC50 (IP receptor) [nM]
1 | O=C(O)C(Cc1ccccc1)Nc1cc(-c2ccc(OCc3ccc(F)cc3)cc2)ncn1 (centres unmarked) [Example 2-7] | 228 to 230 °C (dec.) | < 100
2 | O=C(O)C(Cc1ccccc1)Nc1cc(-c2ccc(OCC3CCCCC3)cc2)ncn1 (centres unmarked) [Example 2-8] | 118 to 120 °C | < 100
3 | O=C(O)C(Cc1ccccc1)Nc1cc(-c2ccc(OCCn3cccc3)cc2)ncn1 (centres unmarked) [Example 2-9] | 209 to 211 °C | < 100
4 | CCCCOc1ccc(-c2cc(NC(Cc3ccccc3)C(=O)O)ncn2)cc1 (centres unmarked) [Example 2-10] | 205 to 208 °C | < 100
5 | O=C(O)C(Cc1ccccc1)Nc1cc(-c2ccc(OCc3cc(F)cc(F)c3)cc2)ncn1 (centres unmarked) [Example 2-11] | 207 to 210 °C (dec.) | < 100
6 | CC(C)Oc1ccc(-c2cc(NC(Cc3ccccc3)C(=O)O)ncn2)cc1 (centres unmarked) [Example 2-12] | 201 to 204 °C (dec.) | < 100
7 | COc1ccc(-c2cc(NC(Cc3ccccc3)C(=O)O)ncn2)cc1 (centres unmarked) [Example 2-13] | 203 to 206 °C (dec.) | 100 to 1000
8 | O=C(O)C(Cc1ccccc1)Nc1cc(-c2ccc(OCc3cccc(O)c3)cc2)ncn1 (centres unmarked) [Example 2-14] | 190 to 193 °C (dec.) | < 100
9 | O=C(O)C(Cc1ccccc1)Nc1cc(-c2ccc(OCC3CCC3)cc2)ncn1 (centres unmarked) [Example 2-15] | 210 to 213 °C (dec.) | < 100
10 | O=C(O)C(Cc1ccccc1)Nc1cc(-c2ccc(OCCc3ccccc3)cc2)ncn1 (centres unmarked) [Example 2-16] | 214 to 216 °C (dec.) | < 100
11 | CC(C)COc1ccc(-c2cc(NC(Cc3ccccc3)C(=O)O)ncn2)cc1 (centres unmarked) [Example 2-17] | 210 to 213 °C (dec.) | < 100
12 | O=C(O)C(Cc1ccccc1)Nc1cc(-c2ccc(OCC3CCCC3)cc2)ncn1 (centres unmarked) [Example 2-20] | 125 to 128 °C | < 100
13 | O=C(O)C(Cc1ccccc1)Nc1cc(-c2ccc(OCc3cccnc3)cc2)ncn1 (centres unmarked) [Example 2-21] | 135 to 136 °C (dec.) | < 100
14 | O=C(O)C(Cc1ccccc1)Nc1cc(-c2ccc(OCCN3CCCC3)cc2)ncn1 (centres unmarked) [Example 2-22] | 117 to 120 °C | > 1000
15 | O=C(O)C(Cc1ccccc1)Nc1cc(-c2ccc(OCCc3cccnc3)cc2)ncn1 (centres unmarked) [Example 2-23] | 85 to 88 °C | < 100
16 | COCCOc1ccc(-c2cc(NC(Cc3ccccc3)C(=O)O)ncn2)cc1 (centres unmarked) [Example 2-24] | 190 to 193 °C (dec.) | < 100
17 | O=C(O)C(Cc1ccccc1)Nc1cc(-c2ccc(OCCCc3ccccc3)cc2)ncn1 (centres unmarked) [Example 2-25] | 101 to 104 °C | < 100
18 | O=C(O)C(Cc1ccccc1)Nc1cc(-c2ccc(OCCc3ccccn3)cc2)ncn1 (centres unmarked) [Example 2-26] | 120 to 122 °C (dec.) | < 100
19 | O=C(O)C(Cc1ccccc1)Nc1cc(-c2ccc(OCCc3ccncc3)cc2)ncn1 (centres unmarked) [Example 2-27] | 113 to 115 °C | < 100
20 | O=C(O)C(Cc1ccccc1)Nc1cc(-c2ccc(OCc3ccccn3)cc2)ncn1 (centres unmarked) [Example 2-28] | 120 to 123 °C | < 100
21 | O=C(O)C(Cc1ccccc1)Nc1cc(-c2ccc(OCc3ccncc3)cc2)ncn1 (centres unmarked) [Example 2-29] | 110 to 113 °C | < 100
22 | O=C(O)C(Cc1cccc(O)c1)Nc1cc(-c2ccc(OCc3ccccc3)cc2)ncn1 (centres unmarked) [Example 2-30] | 169 °C | < 100
23 | O=C(O)C(Cc1ccccc1)Nc1cc(-c2ccc(OCC(F)(F)F)cc2)ncn1 (centres unmarked) [Example 2-31] | 109 to 112 °C | < 100

Row | SMILES | melting point | IC50 (IP receptor) [nM]
24 | O=C(O)C(Cc1ccccn1)Nc1cc(-c2ccc(OCc3ccccc3F)cc2)ncn1 (centres unmarked) [Example 2-32] | 84 to 87 °C | < 100
25 | O=C(O)C(Cc1ccccn1)Nc1cc(-c2ccc(OCc3cccc(F)c3)cc2)ncn1 (centres unmarked) [Example 2-33] | 92 to 95 °C | < 100
26 | CCCCC(Nc1cc(-c2ccc(OCc3ccccc3F)cc2)ncn1)C(=O)O (centres unmarked) [Example 2-34] | 85 to 90 °C | < 100
27 | CCCCC(Nc1cc(-c2ccc(OCc3cccc(F)c3)cc2)ncn1)C(=O)O (centres unmarked) [Example 2-35] | 181 to 186 °C | < 100
28 | O=C(O)C(Cc1ccccn1)Nc1cc(-c2ccc(OCCc3ccccc3)cc2)ncn1 (centres unmarked) [Example 2-38] | 52 to 53 °C | < 100
29 | O=C(O)C(Cc1ccccn1)Nc1cc(-c2ccc(OCc3cc(F)cc(F)c3)cc2)ncn1 (centres unmarked) [Example 2-39] | 90 to 92 °C | < 100
30 | CCCCC(Nc1cc(-c2ccc(OCCc3ccccc3)cc2)ncn1)C(=O)O (centres unmarked) [Example 2-40] | 86 to 88 °C | < 100
31 | CCCCC(Nc1cc(-c2ccc(OCc3cccc(OC)c3)cc2)ncn1)C(=O)O (centres unmarked) [Example 2-44] | 115 to 118 °C | < 100
32 | CCCCC(Nc1cc(-c2ccc(OCc3cc(OC)cc(OC)c3)cc2)ncn1)C(=O)O (centres unmarked) [Example 2-45] | 88 to 93 °C | < 100
33 | CCCCC(Nc1cc(-c2ccc(OCc3cc(F)cc(F)c3)cc2)ncn1)C(=O)O (centres unmarked) [Example 2-46] | 141 to 147 °C | < 100
34 | O=C(O)C(Cc1ccccc1)Nc1cncc(-c2ccc(OCc3ccccc3)cc2)n1 (centres unmarked) [Example 3-2] | 89 to 92 °C | > 1000
35 | O=C(O)C(Cc1ccccc1)Nc1cccc(-c2ccc(OCc3ccccc3)cc2)n1 (centres unmarked) [Example 3-3] | 81 to 84 °C | > 1000
36 | O=C(O)C(Cc1ccccc1)Nc1cc(-c2ccc(OCc3ccccc3)cc2)ccn1 (centres unmarked) [Example 3-4] | 194 to 196 °C | < 100
37 | CN(C)CCOc1cccc(C[C@H](Nc2cc(-c3ccc(OCc4ccccc4)cc3)ncn2)C(=O)O)c1 [Example 4-1, N-{6-[4-(Benzyloxy)phenyl]pyrimidin-4-yl}-3-[2-(dimethylamino)ethoxy]phenylalanine] | 143.1 °C | < 100
38 | NCCOc1cccc(C[C@H](Nc2cc(-c3ccc(OCc4ccccc4)cc3)ncn2)C(=O)O)c1 [Example 5-1, 3-(2-Aminoethoxy)-N-{6-[4-(benzyloxy)phenyl]pyrimidin-4-yl}phenylalanine] | 153.8 °C | < 100
39 | O=C(O)[C@H](Cc1ccccc1)Nc1cc(-c2ccc(/C=C/c3ccccc3)cc2)ncn1 [Example 7-1, N-(6-{4-[(E)-2-Phenylvinyl]phenyl}pyrimidin-4-yl)phenylalanine] | 214 to 216 °C (dec.) | < 100
40 | O=C(O)[C@H](Cc1ccccc1)Nc1cc(-c2ccc(C#Cc3ccccc3)cc2)ncn1 [Example 9-1, N-{6-[4-(Phenylethynyl)phenyl]pyrimidin-4-yl}phenylalanine] | 215 to 218 °C (dec.) | < 100
41 | O=C(O)[C@H](Cc1ccccc1)Nc1cc(-c2ccc(/C=C\c3ccccc3)cc2)ncn1 [Example 10-1, N-(6-{4-[(Z)-2-Phenylvinyl]phenyl}pyrimidin-4-yl)phenylalanin] | 217 to 220 °C (dec.) | < 100
42 | O=C(O)C(Cc1ccccc1)Nc1cc(-c2ccc(-c3ccc4c(c3)OCO4)cc2)ncn1 (centres unmarked) [Example 11-2] | 139 to 142 °C (dec.) | < 100
43 | CSc1ccc(-c2ccc(-c3cc(NC(Cc4ccccc4)C(=O)O)ncn3)cc2)cc1 (centres unmarked) [Example 11-3] | 135 to 137 °C (dec.) | < 100
44 | COc1cccc(-c2ccc(-c3cc(NC(Cc4ccccc4)C(=O)O)ncn3)cc2)c1 (centres unmarked) [Example 11-4] | 112 to 114 °C (dec.) | < 100
45 | O=C(O)C(Cc1ccccc1)Nc1cc(-c2ccc(-c3ccc4ccccc4c3)cc2)ncn1 (centres unmarked) [Example 11-5] | 130 to 132 °C (dec.) | < 100
46 | O=C(O)C(Cc1ccccc1)Nc1cc(-c2ccc(-c3cccc(-c4ccccc4)c3)cc2)ncn1 (centres unmarked) [Example 11-6] | 124 to 126 °C (dec.) | 100 to 1000
